From patent EP2386552A1, “Process for the preparation of (R) a-lipoic acid salts, their formulation and use in pharmaceutical compositions, in form of tablets containing them” (priority 2010, dated 2011)

Tests used:
[1] = pH of 1 % solution in water; type: physicochemical
[2] = Powder apparent density; type: physicochemical; conditions: in g/mL
Excerpt: As solvents, 1-4 carbon atom aliphatic alcohols are used, having linear or branched chain, pure or denaturated by usual denaturants, optionally in a mixture with water or among them or with the mother liquors coming from a previous production cycle that used the same raw materials. The use of ketones, like acetone, as such, (Ex.7, 9) or in a mixture with some of the above mentioned alcohols (Ex.11, 12), produces an amorphous precipitate not suitable to be utilized for the direct compression because of the powder very low density. For industrial purpose a powder having low density (<0,2 g/mL) requires an additional operation (compactation / dry granulation / humid granulation) to produce tablets.

[3] = Release test of tablets (Eur. Ph. 2.9.3, blade stirrer, artificial gastric buffer without pepsin); type: physicochemical; conditions: tablets containing the salt; compared with tablets containing other known salts
Protocol: The release test was carried out according to Eur. Ph. 2.9.3 with a blade stirrer (100 rpm) in 1000 mL of artificial gastric buffer without pepsin (Eur. […] The title is carried out by drawing 10 mL of medium, filtering on paper then evaluating the acid content by the spectrophotometer at the wavelength of 330 nm versus standard. The tablet hardness (N) is evaluated by a Schleuninger 6D durometer. The compression force was settled to obtain three intervals of tablet hardness: 40-90 N; 90-120Ne> […]. Table 2 : release of (R) α-lipoic acid tablet

[4] = Absorption and bioavailability of tablets; type: in vivo; conditions: formulated in tablet; compared with the corresponding tromethamine salt and lipoic acid as a racemate at equivalent doses

pH 1 % in water [1] | Powder apparent density [2] | dissolution profile [3] | absorption and bioavailability [4] | SMILES
6.6 | 0.5-0.7 |  |  | O=C(O)CCCC[C@@H]1CCSS1 [Ex. 1, Trometamol (R) α-lipoate, reference compound]
6.6 |  | dissolution profile better |  | O=C(O)CCCC[C@@H]1CCSS1 [Ex. 6, Cystamine (R) α-lipoate]
5.2 | 0.4-0.6 | dissolution profile better |  | O=C(O)CCCC[C@@H]1CCSS1 [Ex. 7, Diazobicyclo [2,2,2] octane (R) α-lipoate]
5.5 | 0.5-0.6 | dissolution profile better | better absorption and bioavailability | O=C(O)CCCC[C@@H]1CCSS1 [Ex. 8, Piperazine (R) α-lipoato (2:1)]
7.2 |  |  |  | O=C(O)CCCC[C@@H]1CCSS1 [Ex. 12, Piperazine (R) α-lipoate (1:1)]
